The text below walks through data of ChEMBL document CHEMBL3351849, “Synthesis, biological activity and mechanistic insights of 1-substituted cyclopropylamine derivatives: a novel class of irreversible inhibitors of histone demethylase KDM1A” (Eur J Med Chem, 2014).

Calls of active or inactive are those of the source. No cut-off for these calls is given here. Bounds are passed on as bounds.

In test [1] the target is T1, Amine oxidase [flavin-containing] A (Homo sapiens, UniProt P21397).
T1 sequence (P21397 whole entry): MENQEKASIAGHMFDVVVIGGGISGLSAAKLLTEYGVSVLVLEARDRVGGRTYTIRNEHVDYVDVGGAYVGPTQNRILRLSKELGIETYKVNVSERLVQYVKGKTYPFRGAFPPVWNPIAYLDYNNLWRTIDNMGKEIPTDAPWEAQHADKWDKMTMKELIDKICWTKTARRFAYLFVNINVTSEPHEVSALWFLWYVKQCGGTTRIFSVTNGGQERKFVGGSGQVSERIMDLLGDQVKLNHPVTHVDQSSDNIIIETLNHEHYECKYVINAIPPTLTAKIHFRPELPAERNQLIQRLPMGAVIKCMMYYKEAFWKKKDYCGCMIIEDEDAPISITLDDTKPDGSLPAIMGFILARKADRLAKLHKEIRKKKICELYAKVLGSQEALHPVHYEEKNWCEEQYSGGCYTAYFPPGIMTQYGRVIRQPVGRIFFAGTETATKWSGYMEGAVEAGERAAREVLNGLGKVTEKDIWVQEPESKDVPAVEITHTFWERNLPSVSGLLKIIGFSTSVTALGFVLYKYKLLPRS

In test [2] the target is T2, Amine oxidase [flavin-containing] B (Homo sapiens, UniProt P27338).
T2 sequence (P27338 whole entry): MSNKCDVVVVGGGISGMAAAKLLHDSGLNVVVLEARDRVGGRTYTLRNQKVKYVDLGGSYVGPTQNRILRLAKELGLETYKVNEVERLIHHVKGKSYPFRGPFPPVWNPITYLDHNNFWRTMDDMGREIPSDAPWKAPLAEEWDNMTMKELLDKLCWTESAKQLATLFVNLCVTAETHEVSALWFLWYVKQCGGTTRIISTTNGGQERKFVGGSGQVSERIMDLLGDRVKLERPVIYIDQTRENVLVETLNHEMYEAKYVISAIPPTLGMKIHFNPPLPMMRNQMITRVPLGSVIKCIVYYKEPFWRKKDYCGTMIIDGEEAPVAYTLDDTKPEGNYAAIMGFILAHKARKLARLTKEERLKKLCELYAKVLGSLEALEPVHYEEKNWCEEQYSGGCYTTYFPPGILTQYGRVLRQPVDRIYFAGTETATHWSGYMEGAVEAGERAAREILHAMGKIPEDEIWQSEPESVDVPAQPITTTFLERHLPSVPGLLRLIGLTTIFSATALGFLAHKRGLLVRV

Test [3] has as its target T3, Lysine-specific histone demethylase 1A (Homo sapiens, UniProt O60341). The experiment in a line: Inhibition of human recombinant KDM1A/CoREST expressed in Escherichia coli assessed as reduction in H2O2 release at 100 uM using synthetic mono-methylated H3-K4 peptide (21 amino acids) substrate by horseradish peroxidase coupled enzyme assay.
The target in test [4] is T3, Lysine-specific histone demethylase 1A. The experiment in a line: Inhibition of human recombinant KDM1A/CoREST expressed in Escherichia coli assessed as reduction in H2O2 release at 22 uM using synthetic mono-methylated H3-K4 peptide (21 amino acids) substrate by horseradish peroxidase coupled enzyme assay.
Test [5] shares this target. The experiment in a line: Inhibition of KDM1A in human NB4 cells assessed as increase in Gfi-1b mRNA expression up to 100 uM incubated for 24 hrs by quantitative RT-PCR method. It is filed as cell-based. To be noted: NB-4.
Test [6] shares this target.
The target is the same in test [7]. This is another data set of the same source.

Turning to `N[C@]1(Cc2ccccc2)C[C@H]1c1ccccc1`, the IC50 in test [1] stood at 2.59 µM; in test [2] it was 28.1 µM.
Consider `CC[C@]1(N)C[C@@H]1c1ccccc1`, for which the results for the IC50 in test [1] and in test [2] were 1.43 µM and 0.088 µM, respectively.
Take `CC[C@@]1(N)C[C@@H]1c1ccccc1` (relative stereo): the values for the IC50 in test [1] and in test [2] were 1.92 µM and 0.19 µM, respectively.
Regarding `N[C@@H]1C[C@@H]1Oc1ccccc1` (relative stereo), the inhibition in test [3] turned out to be 0%.
For `NCC(=O)c1ccccc1`, the inhibition in test [4] stood at 30%.
`N[C@@]1(c2ccccc2)C[C@H]1c1ccccc1` (relative stereo): the IC50 was 0.0828 µM in test [1] and 10.4 µM in test [2].
For the compound `CC[C@@]1(N)C[C@H]1c1ccccc1`, the IC50 is 6.8 µM in test [1] and 33.3 µM in test [2].
Take `C#CCN(C)CCCOc1ccc(Cl)cc1Cl` [CLORGILINE]: the inhibition entry in test [5] was “inactive”. Also, the IC50 entry in test [6] is “Not Active”.
Regarding `NC[C@@H]1C[C@H]1c1ccccc1` (relative stereo), in test [3], the inhibition is 0%.
Regarding `N[C@H]1C[C@@H]1Oc1ccccc1` (relative stereo), in test [3], the inhibition stood at 0%.
As for `N[C@]1(c2ccccc2)C[C@H]1c1ccccc1`, the IC50 in test [1] was found to be 0.235 µM; in test [2], 5.55 µM.
On to `N[C@@]1(Cc2ccccc2)C[C@@H]1c1ccccc1`, for which the IC50 in test [1] amounted to 8.31 µM; in test [2], 74.3 µM.
`CCOC(=O)[C@]1(N)C[C@H]1c1ccccc1` (relative stereo): the inhibition in test [3] was determined as 11%. Also, in test [7], the IC50 was over 100 µM.
As for `CCC[C@@]1(N)C[C@H]1c1ccccc1` (relative stereo), the IC50 in test [1] was found to be 0.527 µM; in test [2] it was 0.6 µM.
On to `N[C@@]1(C(=O)O)C[C@H]1c1ccccc1` (relative stereo), for which the inhibition in test [3] worked out at 21%. The same compound displayed an IC50 in test [7] of over 100 µM.
Take `N[C@@]1(c2ccccc2)C[C@@H]1c1ccccc1`: the values for the IC50 in test [1] and in test [2] were 0.094 µM and 11.5 µM, respectively.
Consider `N[C@]1(Cc2ccccc2)C[C@@H]1c1ccccc1` (relative stereo), for which the IC50 in test [1] turned out to be 3.51 µM; in test [2] it was 50.5 µM.
`N[C@]1(Cc2ccc3ccccc3c2)C[C@H]1c1ccccc1` (relative stereo): the IC50 in test [1] was determined as 1.3 µM; in test [2], 12.7 µM.
`N[C@]1(CCc2ccccc2)C[C@H]1c1ccccc1` (racemic): the IC50 is 0.0214 µM in test [1] and 0.941 µM in test [2].
